Experimental data as given in patent US7435716B2, “Compounds pharmaceutical compositions and methods for treatment of bacteremia and/or septicemia” (Ramot At Tel Aviv University Ltd., priority 2001, dated 2008).
Like-named read-outs stand apart in the source and are kept apart here.

Legend:
Escherichia coli = assay: Sensitization assay (fold decrease in MIC of novobiocin); format: cell-based; details: sensitization towards novobiocin, peptide 50 μg/ml, relative to PMBN
Protocol: (§1) Bacterial suspension (10 μL, 1×10^5 CFU) was inoculated into microtiter plate wells containing 100 μL of a serial two-fold dilution (1000-0.5 μg/mL) of novobiocin (Sigma) in ISB. To each well, 10 μL of the test peptide was added to a final concentration of 50 μg/mL. The fold decrease in MIC for novobiocin comparing wells with and without test peptides was calculated and designated as sensitizing activity. The relative sensitizing activity of the test peptide was calculated as percent of the sensitizing activity of 50 μg/mL pPMBN.

Klebsiella pneumonia [1] = assay: as above; format: cell-based; details: sensitization towards novobiocin, peptide 50 μg/ml, relative to PMBN
Protocol: as §1

[2] = test system: clinical isolates of gram-negative bacteria; details: previous studies (Ofek et al, 1994); cited from earlier work
[3] = cited from earlier work
[4] = test system: erythromycin resistant Klebsiella pneumoniae; assay: Mice protection assay; format: in vivo; details: for protection of mice, in words: with erythromycin; for Mice survival (Dead/Total): intraperitoneally
Protocol: Sublethal dose of Klebsiella pneumoniae (2×10^5 cfu) were injected intreperitonially to mice. […] After additional 24 hours, the mice were treated once with half dose. Survival was followed daily for 7 days.
Polymyxin octapeptide conjugated with the tripeptide formyl Met-Leu-Phe (fMLF, SEQ ID NO:1) was assayed in combination with erythromycin for the ability to provide protection against Klebsiella pneumoniae infection in an in vivo infection model previously described (Ofek et al., 1994).

E. coli LPS = assay: Displacement assay of dansyl-PMBN from LPS; format: binding; details: for IC50: inhibits 50% of initial fluorescence of 0.55 μM Dansyl-PMBN bound to E. coli-LPS, read-out: Peptides IC50; for ability to displace Dansyl-PMBN from LPS / affinity to LPS, in words: comparison with PMBN or polymyxin B
Protocol: To determine the binding of a given peptide to LPS, a displacement assay was performed in which 5 or 10 μl (1×10^−5-1×10^−3 M) of the tested peptide at desired concentrations were added at 5 minutes interval to a pre-equilibrated mixture of LPS solution (2 mL, 3 μg/mL, ˜2×10^−7 M) in HEPES buffer (5 mM, pH 7.2) and dansyl-PMBN (0.55 μM). The fluorescence intensity (excitation wavelength of 340 nm and emission wavelength of 485 nm) was recorded after each time interval. Each experiment was repeated 2-3 times. The percent inhibition of fluorescence intensity was plotted as a function of the peptide concentration from which the concentration required for maximal (Imax) and 50% (IC50) displacement of the dansyl-PMBN from LPS was derived.
Values were calculated as peptide's potency, at a concentration of 50 μg/ml, relatively to PMBN. IC50 values represent peptide concentrations that inhibits 50% of the initial fluorescence of 0.55 μM Dansyl-PMBN bound to E. coli-LPS.

[5] = Lam et al., 1986; cited from earlier work
[6] = cited from earlier work; remark: listed apart in the source
Gram-negative bacteria [7] = assay: Antimicrobial activity of the peptide per se (MIC assay); format: cell-based; details: peptide alone
Protocol: (§2) Gram-negative bacteria were grown on nutrient agar plates (Difco Laboratories, Detroit, Mich.) and kept at 4° C. An overnight culture in isotonic sensitest broth (ISB, Oxoid) was adjusted to 1×10^5 CFU/mL and inoculated into microtiter plate wells containing each 100 μL of a serial twofold dilution (1000-0.5 μg/mL) of the tested antibiotics in ISB. MIC was defined as the lowest concentration at which there was no visible bacterial growth after incubation for 20 hours at 37° C. The results are reported for 4-8 separate tests that varied by no more than one dilution.

[8] = test system: phagocytosis of E. coli by human monocytes-derived macrophages; assay: Phagocytosis activity assay; format: cell-based
Protocol: (§3) The conjugates and the control peptides were incubated with E. coli (10^6 CFU/mL) prior to the contact with human monocytes-derived macrophages monolayer. After 30 minutes of phagocyte-bacteria encounter, the phagocytes were washed, lysed and the released bacteria allowed to grow for 4.5 hours at 37° C. The amount of trapped bacteria were calculated as a function of absorbency at 600 nm.
as §3, with “nm. fMLF by itself (10 μM) enhanced by 2.5 fold the phagocytosis comparing to the control (FIG. 2). […] Tuftsin-PMBN enhanced the phagocytosis by 3 folds comparing to the control.” for “nm.”

Gram-negative bacteria [9] = assay: Sensitization assay, bacterium not specified at the place; format: cell-based; details: comparison with PMBN
Protocol: as §1

E. coli = assay: Minimal inhibitory concentration (MIC) assay; format: cell-based; details: compared with PMBN
Protocol: as §2

Klebsiella pneumonia [10] = assay: Minimal inhibitory concentration (MIC) assay; format: cell-based; details: compared with PMBN
Protocol: as §2

[11] = test system: Klebsiella pneumoniae clinical isolates; assay: Sensitizing activity for clinical isolates (MIC of antibiotic); format: cell-based; details: antibiotic alone
Protocol: (§4) Experiments for the determining the sensitizing activity of the conjugates were performed similar to those described for PMBN in previous studies (Ofek et al 1994). All conjugates were teted at 20 μg/ml to determine the MIC of the indicated antibiotic. Antibiotics were purchased from Sigma (novobiocin, erythromycin and gentamycin), Bristol (Amikin), Galaxo (Zinacef), and B.R.L (augmentin). Numbers in brackets indicate number of is strains tested.

[12] = test system: Pseudomonas aeruginosa clinical isolates; assay: as above; format: cell-based; details: antibiotic alone
Protocol: as §4

Thr-Dab-cyclo[Dab-Dab-dPhe-Leu-Dab-Dab-Thr] [PMBN]
peptides potency (%) Escherichia coli (Escherichia coli): 100% | peptides potency (%) Klebsiella pneumonia (Klebsiella pneumonia [1]): 100% | clinical isolates rendered more susceptible to novobiocin [2]: 53 out of 53 | neuromuscular blockade, neurotoxic or nephrotoxic effects ([3]; dog, in vivo, iv, 3 mg/kg): did not cause neuromuscular blockade and neurotoxic or nephrotoxic effects | protection of mice, in words [4]: partial protection | IC50 (E. coli LPS): 4500 nM | dose that was not lethal (doses as high as) [5]: 200 mg/Kg body weight | neuromuscular blockade, neurotoxic or nephrotoxic effects ([6]; rat, in vivo, iv, 3 mg/kg): did not cause neuromuscular blockade and neurotoxic or nephrotoxic effects

Thr-Lys-Pro-Arg-Thr-Dab-cyclo[Dab-Dab-dPhe-Leu-Dab-Dab-Thr] [Tuftsin-PMBN]
peptides potency (%) Escherichia coli (Escherichia coli): 863% | peptides potency (%) Klebsiella pneumonia (Klebsiella pneumonia [1]): 268% | antimicrobial activity per se (Gram-negative bacteria [7]): did not have antimicrobial activity by it self | antimicrobial activity per se (Gram-negative bacteria [7]; listed as PMBN-tuftsin): no antimicrobial activity per se | enhancement of phagocytosis comparing to the control ([8]; concentration not given): 3 folds | sensitizing activity, in words (Gram-negative bacteria [9]): increased ability to enhance the permeability of the bacterial outer membrane to novobiocin | ability to displace Dansyl-PMBN from LPS / affinity to LPS, in words (E. coli LPS): much higher potency then PMBN | IC50 (E. coli LPS): 700 nM | effect of the added peptide on MIC of PMBN towards E. coli (E. coli): did not significantly reduce | effect of the added peptide on MIC of PMBN towards Klebsiella pneumonia (Klebsiella pneumonia [10]): did not significantly reduce

Formyl-Met-Leu-Phe-Thr-Dab-cyclo[Dab-Dab-dPhe-Leu-Dab-Dab-Thr] [fMLF-PMBN]
peptides potency (%) Escherichia coli (Escherichia coli): 783% | peptides potency (%) Klebsiella pneumonia (Klebsiella pneumonia [1]): 475% | antimicrobial activity per se (Gram-negative bacteria [7]): did not have antimicrobial activity by it self | antimicrobial activity per se (Gram-negative bacteria [7]; listed as PMBN-fMLF): no antimicrobial activity per se | enhancement of phagocytosis, in words ([8]; 1 μM): enhanced the phagocytosis of the bacteria | protection of mice, in words [4]: Almost complete protection | ability to displace Dansyl-PMBN from LPS / affinity to LPS, in words (E. coli LPS): even lower than PMBN | IC50 (E. coli LPS): 12000 nM | effect of the added peptide on MIC of PMBN towards E. coli (E. coli): did not significantly reduce | effect of the added peptide on MIC of PMBN towards Klebsiella pneumonia (Klebsiella pneumonia [10]): did not significantly reduce

CC[C@H]1OC(=O)[C@H](C)[C@@H](O[C@H]2C[C@@](C)(OC)[C@@H](O)[C@H](C)O2)[C@H](C)[C@@H](O[C@@H]2O[C@H](C)C[C@H](N(C)C)[C@H]2O)[C@](C)(O)C[C@@H](C)C(=O)[C@H](C)[C@@H](O)[C@]1(C)O [Erythromycin]
Range of MIC [11]: 100 to 200 µg/mL | Range of MIC [12]: 200 µg/mL | Mice survival (Dead/Total) ([4]; erythromycin 10 mg/Kg alone): 18/18 | protection of mice, in words [4]: all 18 mice who received erythromycin only died

Gentamycin
Range of MIC [12]: 1000 µg/mL

CO[C@@H]1[C@@H](OC(N)=O)[C@@H](O)[C@H](Oc2ccc3c(O)c(NC(=O)c4ccc(O)c(CC=C(C)C)c4)c(=O)oc3c2C)OC1(C)C [Novobiocin]
Range of MIC [12]: 62 to 1000 µg/mL

Polymyxin B
neuromuscular blockade, neurotoxic or nephrotoxic effects ([3]; dogs, 3 mg/Kg body weight intravenously over a long period): all of which were observed | Mice survival (Dead/Total) ([4]; 1.5 + 1.5 + 1.5 mg/Kg, no erythromycin): 3/18 | IC50 (E. coli LPS): 500 nM | neuromuscular blockade, neurotoxic or nephrotoxic effects ([6]; rats, 3 mg/Kg body weight intravenously over a long period): all of which were observed

formyl-Met-Leu-Phe [fMLF, reference compound]
enhancement of phagocytosis comparing to the control ([8]; 10 μM): 2.5 fold
